What was measured:
[1] = Intraperitoneal pharmacokinetics and brain distribution assay; type: in vivo, male Sprague Dawley rats; details: single i.p. dose 1 mg/kg
Experimental: Healthy male Sprague Dawley rats (8-12 weeks old) weighing between 200 to 250 g were procured from Tina Labs, Hyderabad, India. Three rats were housed in each cage. Temperature and humidity were maintained at 22±3° C. and 40-70%, respectively and illumination was controlled to give a sequence of 12 hr light and 12 hr dark cycle. Temperature and humidity were recorded by auto-controlled data logger system. All the animals were provided laboratory rodent diet (Vetcare India Pvt. Ltd, Bengaluru) ad libitum. Reverse osmosis water treated with ultraviolet light was provided ad libitum.
Twenty one male Sprague Dawley rats were intraperitoneally administered with a solution formulation of the compound of Example 2 prepared in 10% DMSO, 10% Tween 80, and 80% normal saline. The blood samples were collected from a set of three rats at each time point in labeled micro centrifuge tube containing K2EDTA solution as anticoagulant. Plasma samples were separated by centrifugation of whole blood and stored at below −70° C. until bioanalysis. After collection of blood samples at each time point animals, were humanely euthanized by CO2 and the brain was collected. Brain samples were homogenized using ice-cold phosphate buffer saline (pH=7.4) and homogenates were stored at below −70° C. until analysis. Total homogenate volume was three times the brain weight. All samples were processed for analysis by protein precipitation using acetonitrile and analyzed with fit-for-purpose LC-MS/MS method (Lower Limits of Quantitation (LLOQ)=2.01 ng/mL in plasma and 1.01 ng/mL in brain). Pharmacokinetic parameters were calculated using the non-compartmental analysis tool of Phoenix WinNonlin® (Version 6.3).
The intraperitoneal solution formulation concentration was 0.1 mg/mL. The weighed quantity (7.02 mg) of (E)-3-(4-((((3r,5r,7r)-adamantan-1-ylmethyl)(methyl)amino)methyl)phenyl)-N-(2-aminophenyl)acrylamide was added in a labeled bottle. DMSO (7.02 mL) was added to dissolve the compound, followed by addition of Tween 80 (7.02 mL) and the solution was mixed by vortexing. Next, normal saline was added (56.16 mL) and the resulting solution was mixed by vortexing. The solution formulation was sonicated for 2 minutes to obtain a clear and transparent solution.
The blood samples were collected from set of three rats at each time point in labeled micro centrifuge tube containing K2EDTA solution as anticoagulant at time points of 0.08, 0.5, 1, 2, 4, 6, 8 & 24 hours. […]
Concentrations of the compound of Example 2 in rat plasma and brain samples were analyzed with fit-for-purpose by LC-MS/MS method. […] Following centrifugation, 100 µL of clear supernatant was transferred a 96-well plate and analyzed using LC-MS/MS. […]

[2] = test system: rats; test: Open field activity test; type: in vivo, rat; details: 20-fold higher doses relative to the FST tests (0.5 and 2.0 mg/kg i.p.), relative to vehicle-treated controls
Experimental: Behavioral testing was applied to a cohort of 12 rats. Following 7 days of daily i.p. treatment with i) vehicle (10% DMSO, 10% Tween 80, 80% saline; 2 mL/kg); or solubilized ii) the compound of Example 2 (0.025 mg/kg) or iii) the compound of Example 2 (0.1 mg/kg), rats were exposed to the modified forced swim test (FST). Briefly, FST exposure (15 min exposure, 25° C. tap water, 30 cm water depth) was performed 18-24 h after the previous i.p. treatment, after which rats were returned to their home cages to dry for approximately 2-3 h, then given daily i.p. treatment as before. FST testing was performed one day later (5 min test, 25° C. tap water, 30 cm water depth) with behaviors digitally recorded for subsequent analysis of immobility by a trained reviewer, blinded to treatment groups. Rats were returned to home cages and monitored without treatment for 72 h. Rats were then treated for 7 additional days with i) vehicle, ii) the compound of Example 2 (0.5 mg/kg) or iii) the compound of Example 2 (2.0 mg/kg) via daily i.p. injection; treatment assignments for each rat remained the same with a 20× increase in dose of the compound of Example 2. Animals were then evaluated for locomotor activity in an open field (60 cm square) using automated tracking software (MedAssociates). […]

[3] = test system: rats; test: Forced swim test; type: in vivo, rat; details: 0.1 mg/kg i.p., against vehicle-treated controls, 5-min FST session
Experimental: (§1) Behavioral testing was applied to a cohort of 12 rats. Following 7 days of daily i.p. treatment with i) vehicle (10% DMSO, 10% Tween 80, 80% saline; 2 mL/kg); or solubilized ii) the compound of Example 2 (0.025 mg/kg) or iii) the compound of Example 2 (0.1 mg/kg), rats were exposed to the modified forced swim test (FST). Briefly, FST exposure (15 min exposure, 25° C. tap water, 30 cm water depth) was performed 18-24 h after the previous i.p. treatment, after which rats were returned to their home cages to dry for approximately 2-3 h, then given daily i.p. treatment as before. FST testing was performed one day later (5 min test, 25° C. tap water, 30 cm water depth) with behaviors digitally recorded for subsequent analysis of immobility by a trained reviewer, blinded to treatment groups. Rats were returned to home cages and monitored without treatment for 72 h. […] Animals were then evaluated for locomotor activity in an open field (60 cm square) using automated tracking software (MedAssociates).
(§2) Rats were exposed to a 15 min session of forced swimming in 25° C. water (20 cm diameter cylinder, 30 cm water depth). […] After 1 day, rats were tested for immobility time during 5-min FST sessions which were videotaped and scored by a trained observer blinded to treatment groups.

[4] = Weight gain of rats during treatment; type: in vivo, rat; details: daily i.p. treatment
Experimental: as §1, §2

Kp ([1]; male, Sprague Dawley, rat, brain/plasma, ip, read-out: Brain-to-plasma exposure ratio): 20.6
Tmax ([1]; male, Sprague Dawley, rat, plasma, ip): 30 min
brain concentrations quantifiable up to ([1]; brain (2 animals), LLOQ 1.01 ng/mL): ≤ 24 h
plasma concentrations quantifiable up to ([1]; plasma (2 animals), LLOQ 2.01 ng/mL): up to 8 h
average weight gain of tested rats [4]: not impacted
SMILES: CN(Cc1ccc(/C=C/C(=O)Nc2ccccc2N)cc1)CC12CC3CC(CC(C3)C1)C2 [Example 2, (E)-3-(4-((((3r,5r,7r)-adamantan-1-ylmethyl)(methyl)amino)methyl)phenyl)-N-(2-aminophenyl)acrylamide]
effect in locomotor activity (open field) [2]: no confounding effect in locomotor activity
decrease in FST immobility scores [3]: 17%

Reference: patent US20170349540A1, “HISTONE DEACETYLASE INHIBITORS” (The General Hospital Corporation, priority 2014, published 2017)
